For data set [1], the system named is S. aureus ATCC 29213. Kind of data set: MIC determination. The class given is cell-based, Staphylococcus aureus. The conditions noted are these: for MIC: Staphylococcus aureus.
Data set [2] has as its system S. aureus NRS100 (COL). Nature of the data set: MIC determination. The class given is cell-based. Conditions: Staphylococcus aureus. From the text: (§1) The ESKAPE organisms (E. faecium NCTC (ATCC 19734), S. aureus ATCC 29213, K. pneumonia ATCC 700603, A. baumannii ATCC 17961, P. aeruginosa ATCC 17853, E. aerogenes ATCC 35029) and E. coli ATCC 25922) in the initial screen, S. aureus ATCC 27660, S. epidermis ATCC 35547, S. haemolyticus ATCC 29970, S. oralis ATCC 9811, S. pyogenes ATCC 49399, B. cereus ATCC 13061, B. licheniformis ATCC 12759, and E. faecalis ATCC 29212 were purchased from the American Type Culture Collection (Manassas, Va., USA). S. aureus strains NRS100, NRS119, NRS120, VRS1, and VRS2 were obtained from the Network on Antimicrobial Resistance in Staphylococcus aureus (Chantilly, Va., USA). E. faecalis strains 201 and 99, and E. faecium strains 119-39A and 106 were collected from Wayne State University School of Medicine.
(§2) The procedure for MIC determination was the same as previously reported (Tran et al., Am. J. Clin. Dermatol. 2015; doi 10.1007/S40257-015-0125-9).

The subject of data set [3] is S. epidermis ATCC 35547. Nature of the data set: MIC determination. The class given is cell-based.
Source text: as §1, §2

Data set [4] deals with S. haemolyticus ATCC 29970. Nature of the data set: MIC determination. The class given is cell-based. Conditions: Staphylococcus haemolyticus, ATCC29970.
Source text: as §1, §2

Data set [5] in a line: Plasma protein binding, equilibrium dialysis. Conditions: 10 μM, 37° C., 6 h. As for the experimental part: Protein binding for compounds 60b, 60c, 65b, 66b, 75b and 76b was determined in human plasma using equilibrium dialysis.
Plasma protein binding was determined using human plasma and a rapid equilibrium dialysis device (Pierce Biotechnology, Thermo Scientific, Waltham, Mass., USA). Human plasma was thawed and centrifuged at 1200 g for 10 min to remove particulates. A […] aliquot of human plasma was added to the sample chamber and 350 μL of 0.1 M phosphate buffered saline (pH 7.4) containing […] sodium chloride was added to the adjacent chamber. A 2-μL aliquot of a stock solution of the compounds at a concentration of 1 mM in DMSO was diluted with human plasma to a final drug concentration of 10 μM and added to the sample chamber. The compounds were dialyzed at 37° C. in an orbital shaker for 6 h. Aliquots (50 μL) were taken from the buffer chamber (representing the free concentration) and from the plasma chamber (representing the total concentration) and mixed with 100 μL of internal standard in acetonitrile to a final concentration of 5 μM. Samples were analyzed by UPLC with UV detection at 285 nm. The plasma protein binding ratio (B %) was calculated according to the following equation: B%=(Cp−Cf)/Cp×100 where Cp and Cf are the total plasma concentration and the free concentration of compound, respectively.

The nature of data set [6]: Fast pharmacokinetic (PK) studies. The class given is in vivo, mouse. How it is done:
To rapidly ascertain the PK properties of the compounds, fast PK studies were conducted. These studies involve administration of the compounds using a limited number of animals (n=2 mice per time point) for a few time points. This allows us to rapidly compare the preliminary PK properties of the compounds, so that full PK studies are conducted only with the most promising compound(s). […] The alkyne substituted pyrazole 66b had the lowest clearance and the highest systemic exposure, as measured by area under the curve (AUC, Table 2).
Female ICR mice (6-8 weeks old, ˜20-g body weight) were used for the PK and peritonitis studies. Animals were purchased from Harlan Laboratories, Inc. (Indianapolis, Ind., USA) and given Teklad 2019 Extruded Rodent Diet and water ad libitum. Mice were maintained in polycarbonate shoebox cages with ¼″ corncob (The Andersons Inc., Maumee, Ohio) and Alpha-dri (Sheperd Specialty Papers, Inc., Richland, Mich.) bedding under 12-h light/12-h dark cycle at 72±2° F.
For fast PK studies, the compounds were dissolved in 10% DMSO/25% Tween-80/65% water at a concentration of 5 mg/mL. The dosing formulations were sterilized by filtration through a 0.2 μm, 13 mm diameter PTFE membrane attached to an Acrodisc syringe filter (Pall Life Sciences, Ann Arbor, Mich., USA). […] Terminal blood was collected at 5 min, 40 min, 2 h, 4 h, and 8 h; blood was centrifuged at 1200 g for 10 min to harvest plasma.
Plasma ([…], aliquot) was mixed with 100 μL of acetonitrile containing internal standard (final concentration 8 μg/mL). After centrifugation at 10000 g for 10 min, the supernatant was analyzed by ultraperformance liquid chromatography (UPLC) with UV detection at 285 nm. A Waters Acquity UPLC System (Waters Corporation, Milford, Mass., USA), consisting of a binary pump, an autosampler, a column heater, and a photodiode array detector was used. An Acquity UPLC C18 1.7 μm, 2.1 mm i.d.×50 mm column was used. Elution was at 0.5 mL/min with 70% A/30% B for 2 min, followed by a 10-min linear gradient to 10% A/90% B, then 70% A/30% B for 2 min, where A=0.1% formic acid/water and B=0.1% formic acid/acetonitrile. Monitoring was by UV detection at 285 nm. Calibration curves for each compound were prepared in control plasma containing internal standard. The concentrations in the PK samples were obtained using peak area ratio to the internal standard and the calibration curve regression analysis parameters. The methods were linear from 0.01 to 100 μg/mL; coefficients of determination R^2 range from 0.98 to 0.99.
The area under the curve (AUC), clearance (CL), volume of distribution (Vd), and terminal half-life were calculated using Phoenix WinNonlin 6.3 (Certara LP, St Louis, Mo., USA) noncompartmental analysis using uniform weighing. Half-lives were estimated from the linear portion of the initial or terminal phase of the concentration-time data by linear regression, where the slope of the line was the rate constant k and t1/2=ln 2/k.

Data set [7] relates to HepG2 cells. Kind of data set: XTT cytotoxicity assay. Conditions: for IC50: Homo sapiens. The data set is classed as cell-based. As for the experimental part:
We used the XTT assay with HepG2 cells to evaluate the in vitro toxicity of compounds 60b, 60c, 65b, 66b, 75b and 76b (Table 2). […] Compared to the lead 1, indole 75b was 5-fold less toxic.
The XTT cytotoxicity assay was performed in triplicated using HepG2 cells (ATCC HB-8065), as previously described (Tran et al., Am. J. Clin. Dermatol. 2015; doi 10.1007/S40257-015-0125-9). The IC50 values were calculated with GraphPad Prism 5 (GraphPad Software, Inc., San Diego, Calif., USA).

Setting [8] is: ATCC29213, Table 3.1 and SAR text, compounds of Schemes 2-4, read-out: S. aureus ATCC 29213 MIC.
The mark [9] stands for this setting: ATCC29213, quality-control, methicillin-susceptible strain, Tables 1 and 5, read-out: MIC.
[10] abbreviates: mecA positive, resistant to methicillin, oxacillin, tetracycline, Tables 1 and 5, read-out: MIC.
The mark [11] stands for this setting: single iv dose at 20 mg/kg, mice.
Setting [12] is: HepG2 cells, cytotoxicity, read-out: XTT HepG2 IC50.

In brackets after ≈: the same amount, converted by molar mass. Read-outs that look alike come from different tables or passages of the source. Marks after values point to notes of the source that are not given here. Bounds are passed on as bounds.

For `Fc1ccc(Oc2ccc(-c3noc(-c4n[nH]cc4Cl)n3)cc2)cc1` [Compound 60c, 5-(4-Chloro-1H-pyrazol-3-yl)-3-(4-(4-fluorophenoxy)phenyl)-1,2,4-oxadiazole], the MIC in data set [1] (setting [8]) is 0.5 mg/L (≈ 1.4 µM); in data set [1] (setting [9]), 1 mg/L (≈ 2.8 µM); in data set [2] (setting [10]) it was more than 128 mg/L; in data set [3] (Tables 1 and 5, read-out: MIC), more than 128 mg/L; in data set [4] (Tables 1 and 5, read-out: MIC) it was more than 128 mg/L. Also, the “Human plasma protein binding” value in data set [5] stood at 94.5 ± 2.1%. In addition, the AUC0-8 h in data set [6] (setting [11]) is 446 µg·min/mL. In addition, the CL in data set [6] (setting [11]) turned out to be 44.9 mL/min/kg. Moreover, the 50% inhibitory concentration (IC50) in data set [7] (setting [12]) came out at 18.2 ± 2.9 mg/L (≈ 51 µM).

As to `FC(F)(F)c1ccc(Oc2ccc(-c3noc(-c4c[nH]cn4)n3)cc2)cc1` [Compound 76b, 5-(1H-Imidazol-4-yl)-3-(4-(4-(trifluoromethyl)phenoxy)phenyl)-1,2,4-oxadiazole], the MIC in data set [1] (setting [8]) is 2 mg/L (≈ 5.37 µM); in data set [2] (setting [10]), 32 mg/L (≈ 86 µM); in data set [3] (Tables 1 and 5, read-out: MIC), 32 mg/L (≈ 86 µM); in data set [4] (Tables 1 and 5, read-out: MIC) it was 16 mg/L (≈ 43 µM). Also, the “Human plasma protein binding” value in data set [5] is given as 93.5 ± 2.4%. The AUC0-8 h in data set [6] (setting [11]) came out at 2054 µg·min/mL. Besides, the CL in data set [6] (setting [11]) stood at 9.7 mL/min/kg. The IC50 in data set [7] (setting [12]) amounted to 31.5 ± 0.5 mg/L (≈ 84.6 µM).

Turning to `Oc1ccc(-c2nc(-c3ccc(Oc4ccc(C(F)(F)F)cc4)cc3)no2)cc1` [Compound 1], the MIC was found to be 1 mg/L (≈ 2.51 µM) in data set [1] (setting [8]); 2 mg/L (≈ 5.02 µM) in data set [1] (setting [9]); 2 mg/L (≈ 5.02 µM) in data set [2] (setting [10]); 2 mg/L (≈ 5.02 µM) in data set [3] (Tables 1 and 5, read-out: MIC); 2 mg/L (≈ 5.02 µM) in data set [4] (Tables 1 and 5, read-out: MIC). In addition, the “Human plasma protein binding” value in data set [5] was found to be 99.9 ± 0.1%. Also, the AUC(0-t) in data set [6] (ICR, mouse, plasma, compound 1 at 50 mg/kg iv, read-out: AUC0-8 h) was 44.2 µg·h/mL. Besides, the CL in data set [6] (compound 1 at 50 mg/kg iv) is 18.9^c mL/min/kg. The IC50 in data set [7] (setting [12]) came out at 25.8 mg/L (≈ 64.8 µM).

Consider `C#Cc1c[nH]nc1-c1nc(-c2ccc(Oc3ccc(C(F)(F)F)cc3)cc2)no1` [Compound 66b, 5-(4-Ethynyl-1H-pyrazol-3-yl)-3-(4-(4-(trifluoromethyl)phenoxy)phenyl)-1,2,4-oxadiazole], for which the minimal inhibitory concentration (MIC) was 0.25 mg/L (≈ 0.631 µM) in data set [1] (setting [8]); more than 128 mg/L in data set [2] (setting [10]); more than 128 mg/L in data set [3] (Tables 1 and 5, read-out: MIC); more than 128 mg/L in data set [4] (Tables 1 and 5, read-out: MIC). In addition, in data set [1] (Table 3.1, compounds of Schemes 2-4), the “S. aureus ATCC 29213 MIC” value came out at 0.25 mg/L. For the same compound, the “Human plasma protein binding” value in data set [5] is 96.4 ± 2.7%. Moreover, in data set [6] (setting [11]), the AUC0-8 h stood at 8261 µg·min/mL. The CL in data set [6] (setting [11]) is 2.4 mL/min/kg. For the same compound, the IC50 in data set [7] (setting [12]) is 9.8 ± 4 mg/L (≈ 24.7 µM).

On to `FC(F)(F)c1ccc(Oc2ccc(-c3noc(-c4ccc5[nH]ccc5c4)n3)cc2)cc1` [Compound 75b, 5-(1H-Indol-5-yl)-3-(4-(4-(trifluoromethyl)phenoxy)phenyl)-1,2,4-oxadiazole], for which the MIC is 4 mg/L (≈ 9.49 µM) in data set [1] (setting [8]); 2 mg/L (≈ 4.75 µM) in data set [1] (setting [9]); 8 mg/L (≈ 19 µM) in data set [4] (Tables 1 and 5, read-out: MIC). Besides, the “Human plasma protein binding” value in data set [5] is given as 98.2±3.2%. Also, the AUC0-8 h in data set [6] (setting [11]) came to 1283 µg·min/mL. Also, the CL in data set [6] (setting [11]) came out at 15.2 mL/min/kg. The IC50 in data set [7] (setting [12]) is 75.7 ± 7.3 mg/L (≈ 180 µM). The “fold less toxic than the lead 1” value in data set [7] (XTT assay, HepG2 cells) turned out to be 5 fold.

With `CC(C)Nc1c[nH]nc1-c1nc(-c2ccc(Oc3ccc(C(F)(F)F)cc3)cc2)no1` [Compound 65b, N-Isopropyl-3-(3-(4-(4-(trifluoromethyl)phenoxy)phenyl)-1,2,4-oxadiazol-5-yl)-1H-pyrazol-4-amine], the MIC in data set [1] (ATCC29213) is 0.5 mg/L (≈ 1.16 µM); in data set [1] (ATCC29213, read-out: S. aureus ATCC 29213 MIC) it was 0.5 mg/L (≈ 1.16 µM); in data set [2] it was more than 128 mg/L; in data set [3], more than 128 mg/L; in data set [4], more than 128 mg/L. Besides, the “Human plasma protein binding” value in data set [5] worked out at 91.6 ± 0.3%. The compound further displayed an AUC0-8 h in data set [6] (setting [11]) of 1313 µg·min/mL. In addition, in data set [6] (setting [11]), the CL is 15.2 mL/min/kg. Also, in data set [7] (HepG2, read-out: XTT HepG2 IC50), the IC50 is 3.9 ± 0.8 mg/L (≈ 9.08 µM).

Turning to `FC(F)(F)c1ccc(Oc2ccc(-c3noc(-c4n[nH]cc4Cl)n3)cc2)cc1` [Compound 60b, 5-(4-Chloro-1H-pyrazol-3-yl)-3-(4-(4-(trifluoromethyl)phenoxy)phenyl)-1,2,4-oxadiazole], the MIC in data set [1] (setting [8]) is 1 mg/L (≈ 2.46 µM); in data set [2] (setting [10]), more than 128 mg/L; in data set [3] (Tables 1 and 5, read-out: MIC) it was more than 128 mg/L; in data set [4] (Tables 1 and 5, read-out: MIC), more than 128 mg/L. The “Human plasma protein binding” value in data set [5] worked out at 97.8 ± 0.3%. For the same compound, the AUC0-8 h in data set [6] (setting [11]) is 910 µg·min/mL. Besides, the CL in data set [6] (setting [11]) was determined as 22.0 mL/min/kg. Moreover, the IC50 in data set [7] (setting [12]) stood at 24.1 ± 1.6 mg/L (≈ 59.3 µM).

The record behind these values is US10662164B2, “Non-beta lactam antibiotics” (University of Notre Dame du Lac, priority 2014, dated 2020).
